In general, inhibition refers to the relative decrease from the control value, in per cent.

Like-named read-outs stand apart in the source and are kept apart here.

Test [1] concerns the target T1, activated human C1 (Homo sapiens, UniProt P09871).
T1 sequence (P09871 16-437 limits assumed): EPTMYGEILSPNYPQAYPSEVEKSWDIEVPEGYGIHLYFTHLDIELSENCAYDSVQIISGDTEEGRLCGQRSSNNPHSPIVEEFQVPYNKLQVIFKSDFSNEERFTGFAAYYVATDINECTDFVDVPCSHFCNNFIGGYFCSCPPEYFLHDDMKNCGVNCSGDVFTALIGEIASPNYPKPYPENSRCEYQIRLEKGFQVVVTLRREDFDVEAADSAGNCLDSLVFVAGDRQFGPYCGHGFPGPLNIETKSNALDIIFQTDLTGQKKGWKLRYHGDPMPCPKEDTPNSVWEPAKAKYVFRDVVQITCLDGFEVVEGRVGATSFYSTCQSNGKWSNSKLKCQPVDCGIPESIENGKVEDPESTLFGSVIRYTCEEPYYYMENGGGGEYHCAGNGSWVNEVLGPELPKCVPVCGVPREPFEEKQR
T1 sequence (P09871 438-688 limits assumed): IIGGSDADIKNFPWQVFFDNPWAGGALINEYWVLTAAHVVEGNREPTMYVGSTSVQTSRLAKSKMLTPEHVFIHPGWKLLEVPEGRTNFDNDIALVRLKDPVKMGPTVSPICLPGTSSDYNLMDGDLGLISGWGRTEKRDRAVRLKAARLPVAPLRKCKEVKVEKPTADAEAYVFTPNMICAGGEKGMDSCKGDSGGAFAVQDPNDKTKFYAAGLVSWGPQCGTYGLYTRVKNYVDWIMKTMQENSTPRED
The test is described as follows: Test Code 026 (C1 inhibitor). The following applies: activity in wells, twofold serial dilution assay; higher well number indicates higher activity. Format: biochemical. From the text:
(§1) An active inhibitor protects C2 from C1 and C4; (ii) Test Code 035 (C3-C9 inhibitor)--This test determines the ability of the late components of human complement (C3-C9) to lyse EAC 142 in the presence of appropriate dilutions of the test compound. An active inhibitor protects EAC 142 from lysis by human C3-C9; (iii) Test Code 036 (C-Shunt inhibitor)--In this test human erythrocytes rendered fragile are lysed in autologous serum via the shunt pathway activated by cobra venom factor in the presence of appropriate dilutions of the test compound. Inhibition of the shunt pathway results in failure of lysis; (iv) Forssman Vasculitis Test--Here, the well known complement dependent lesion, Forssman vasculitis, is produced in guinea pigs by intradermal injection of rabbit anti-Forssman antiserum. […] Percent inhibition is calculated by comparison with simultaneous controls. […]

Test [2] relates to late components of human complement (C3-C9). The test is described as follows: Test Code 035 (C3-C9 inhibitor), lysis of EAC 142. To be noted: activity in wells, twofold serial dilution assay; higher well number indicates higher activity. Format: biochemical.
From the text: as §1

In test [3] the test system is shunt pathway. The test is described as follows: Test Code 036 (C-Shunt inhibitor), lysis of human erythrocytes in autologous serum activated by cobra venom factor. Format: cell-based. To be noted: activity in wells, twofold serial dilution assay; higher well number indicates higher activity.
From the text: as §1

The test system of test [4] is complement activity. The test is described as follows: Guinea Pig Intraperitoneal Test (GPIP), serum complement activity. Format: in vivo. To be noted: Cavia porcellus, ip, 200 mg./kg. i.p., vs simultaneous controls. From the text: An active inhibitor protects C2 from C1 and C4; (ii) Test Code 035 (C3-C9 inhibitor)--This test determines the ability of the late components of human complement (C3-C9) to lyse EAC 142 in the presence of appropriate dilutions of the test compound. An active inhibitor protects EAC 142 from lysis by human C3-C9; (iii) Test Code 036 (C-Shunt inhibitor)--In this test human erythrocytes rendered fragile are lysed in autologous serum via the shunt pathway activated by cobra venom factor in the presence of appropriate dilutions of the test compound. Inhibition of the shunt pathway results in failure of lysis; (iv) Forssman Vasculitis Test--Here, the well known complement dependent lesion, Forssman vasculitis, is produced in guinea pigs by intradermal injection of rabbit anti-Forssman antiserum. The lesion is measured in terms of diameter, edema and hemorrhage and the extent to which a combined index of these is inhibited by prior intraperitoneal injection of the test compound at 200 mg./kg. is then reported, unless otherwise stated; (v) Forssman Shock Test--Lethal shock is produced in guinea pigs by an i.v. injection of anti-Forssman antiserum and the harmonic mean death time of treated guinea pigs is compared with that of simultaneous controls; (vi) Complement Level Reduction Test--In this test, the above dosed guinea pigs, or others, are bled for serum and the complement level is determined in undiluted serum by the capillary tube method of U.S. Pat. No. 3,876,376 and compared to undosed control guinea pigs; (vii) Cap 50 Test--Here, appropriate amounts of the test compound are added to a pool of guinea pig serum in vitro, after which the undiluted serum capillary tube assay referred to above is run. The concentration of compound inhibiting 50% is reported; (viii) Guinea Pig Intraperitoneal Test (GPIP)--Guinea Pigs weighing about 300 g. are dosed intraperitoneally (i.p.) with 200 mg./kg. of the test compound dissolved in saline and adjusted to pH 7-8. […] Percent inhibition is calculated by comparison with simultaneous controls. […]

For the compound `O=S(=O)([O-])c1cc(NS(=O)(=O)c2cc(S(=O)(=O)Nc3cc(S(=O)(=O)[O-])cc(S(=O)(=O)[O-])c3)c3cc(S(=O)(=O)Nc4cc(S(=O)(=O)[O-])cc(S(=O)(=O)[O-])c4)cc(S(=O)(=O)Nc4cc(S(=O)(=O)[O-])cc(S(=O)(=O)[O-])c4)c3c2)cc(S(=O)(=O)[O-])c1.[Na+].[Na+].[Na+].[Na+].[Na+].[Na+].[Na+].[Na+]` [5,5',5",5"'-[1,3,5,7-Naphthalenetetrayltetrakis(sulfonylimino)]tetrakis-1,3-benzenedisulfonic acid, octasodium salt], the “Cl 026* Wells” value in test [1] is reported as “+10 Wells”. Besides, the “C-Late 035* Wells” value in test [2] is reported as “+1 Wells”. In addition, the “Shunt Inhibition 036* Wells” value in test [3] is “+7 Wells”. The inhibition at 200 mg/kg in test [4] (0.5 h, serum 30 minutes after injection, read-out: In Vivo Activity (Guinea Pig) % Inhibition Intraperitoneal, 30 minutes) was -62%; in test [4] (1 h, serum 60 minutes after injection, read-out: In Vivo Activity (Guinea Pig) % Inhibition Intraperitoneal, 60 minutes), -59%; in test [4] (2 h, serum 120 minutes after injection, read-out: In Vivo Activity (Guinea Pig) % Inhibition Intraperitoneal, 120 minutes), -81%.

Source of the values: patent US4265830A, “Naphthalenetetrayletrakis(sulfonylimino)-aryl disulfonic acids and salts thereof” (priority 1979, dated 1981).
